Where “and” joins values, the source holds several entries; their conditions need not be identical. Equal values may be shown once. ± gives the expanded uncertainty stated by the source.
Conditions: 101.33 kPa, Liquid, transient hot wire

CCCC[N+]1(C)CCCC1.O=S(=O)([N-]S(=O)(=O)C(F)(F)F)C(F)(F)F
Conditions	thermal conductivity [W/m/K]
279.16 K	0.1159 ± 0.0037
294.59 K	0.115 ± 0.0037
306.65 K	0.1157 ± 0.0037
334.78 K	0.114 ± 0.0037
335.13 K	0.1143 ± 0.0037
338.98 K	0.1136 ± 0.0037
353.98 K	0.1153 ± 0.0037
362.23 K	0.1135 ± 0.0037
364.36 K	0.1142 ± 0.0037
383.56 K	0.1134 ± 0.0037
419.99 K	0.1126 ± 0.0036
438.07 K	0.1123 ± 0.0036

CCC[N+]1(C)CCCC1.O=S(=O)([N-]S(=O)(=O)C(F)(F)F)C(F)(F)F
Conditions	thermal conductivity [W/m/K]
279.07 K	0.118 ± 0.0038
300.88 K	0.1176 ± 0.0038
318.32 K	0.1174 ± 0.0038
326.71 K	0.1167 ± 0.0038
340.17 K	0.1178 ± 0.0038
351.81 K	0.1166 ± 0.0038
354.65 K	0.1172 ± 0.0038
389.67 K	0.1162 ± 0.0038
408.29 K	0.1142 ± 0.0037
409.24 K	0.1156 ± 0.0037
434.89 K	0.115 ± 0.0037
435.53 K	0.1138 ± 0.0037

Cc1ccccc1 [toluene]
Conditions	thermal conductivity
276.19 K	0.1359 ± 0.0044 W/m/K
278.42 K	0.1339 ± 0.0043 W/m/K
281.25 K	0.1324 ± 0.0043 W/m/K and 0.1325 ± 0.0043 W/m/K
302.05 K	0.129 ± 0.0042 W/m/K
304.59 K	0.1268 ± 0.0041 W/m/K
329.65 K	0.1235 ± 0.004 W/m/K
331.24 K	0.1237 ± 0.004 W/m/K
337.63 K	0.1242 ± 0.004 W/m/K
339.65 K	0.122 ± 0.0039 W/m/K
339.85 K	0.1226 ± 0.004 W/m/K
340.17 K	0.12 ± 0.0039 W/m/K
351.33 K	0.1166 ± 0.0038 W/m/K
351.55 K	0.12 ± 0.0039 W/m/K
352.25 K	0.1179 ± 0.0038 W/m/K

O [water]
Conditions	thermal conductivity [W/m/K]
276.41 K	0.5538 ± 0.018
300.61 K	0.6257 ± 0.02
303.32 K	0.6103 ± 0.02
306.14 K	0.6095 ± 0.02
325.57 K	0.6581 ± 0.021
329.48 K	0.6422 ± 0.021
333.39 K	0.6498 ± 0.021
350.97 K	0.6877 ± 0.022
355.05 K	0.672 ± 0.022
356 K	0.6781 ± 0.022
356.22 K	0.6716 ± 0.022
356.54 K	0.6823 ± 0.022
356.76 K	0.6589 ± 0.021
356.9 K	0.6827 ± 0.022
360.47 K	0.6765 ± 0.022
361.52 K	0.6756 ± 0.022

Source: the NIST ThermoML archive (doi:10.1016/j.fluid.2018.12.025)
